Measured values from patent US20230017539A1, “TRI-HETEROCYCLIC COMPOUND AS JAK INHIBITOR, AND USE THEREOF” (CHIA TAI TIANQING PHARMACEUTICAL GROUP CO., LTD., priority 2019, published 2023).

How the values were obtained:
[1] = target: T1, JAK1(h) (Homo sapiens, UniProt P23458); experiment: In vitro activity assay of JAK1 kinase (radiometric, [γ-33P]-ATP); assay type: biochemical; settings: recombinant human JAK1, 40 min at room temperature
T1 construct: purchased Eurofins, UK
Protocol: (§1) Recombinant human JAK1, JAK2, JAK3 and Tyk2 […], and main instruments and reagents were all provided by Eurofins, UK.
(§2) Dilution of JAK2, JAK3 and TYK2: 20 mM 3-(N-morpholino)propanesulfonic acid (MOPS), 1 mM EDTA, 0.01% Brij-35.5% glycerol, 0.1% β-mercaptoethanol, and 1 mg/mL BSA; dilution of JAK1: 20 mM TRIS, 0.2 mM EDTA, 0.1% β-mercaptoethanol, and 0.01% Brij-35.5% glycerol. All compounds were prepared as 100% DMSO solutions, and the concentration was brought to 50 times the final assay concentration. A test compound was diluted with a 3-fold gradient, with a total of 9 final concentrations ranging from 10 μM to […]. The DMSO content in the assay reaction was 2%. The working stock solution of the compound was added into the assay wells as a first component of the reaction, and the remaining components were then added according to the protocol detailed for the assay below.
JAK1(h) was incubated with 20 mM Tris/HC pH 7.5, 0.2 mM EDTA, 500 μM MGEEPLYWSFPAKKK (SEQ ID NO: 1), 10 mM magnesium acetate and [γ-^33P]-ATP (the activity and concentration were tailored as required). The reaction was started by adding a Mg/ATP mixture, and terminated by adding 0.5% phosphoric acid after 40 min of incubation at room temperature. 10 μL of the reactant was then dotted on a P30 filter pad, washed three times with 0.425% phosphoric acid and once with methanol within 4 minutes, and dried, and scintillation counting was performed.
(§3) The IC50 results were obtained by analysis using XLFITS (formula 205) of IDBS company and detailed in Table 1.

[2] = target: T2, JAK2(h) (Homo sapiens, UniProt O60674); experiment: In vitro activity assay of JAK2 kinase (radiometric, [γ-33P]-ATP); assay type: biochemical; settings: recombinant human JAK2, 40 min at room temperature
T2 construct: purchased Eurofins, UK
Protocol: as §1, §2
JAK2(h) was incubated with 8 mM MOPS pH 7.0, 0.2 mM EDTA, 100 μM […] (SEQ ID NO: 2), 10 mM magnesium acetate and [γ-^33P]-ATP (the activity and concentration were tailored as required). The reaction was started by adding a Mg/ATP mixture, and terminated by adding 0.5% phosphoric acid after 40 min of incubation at room temperature. 10 μL of the reactant was then dotted on a P30 filter pad, washed three times with 0.425% phosphoric acid and once with methanol within 4 minutes, and dried, and scintillation counting was performed.
as §3

[3] = target: T3, JAK3(h) (Homo sapiens, UniProt P52333); experiment: In vitro activity assay of JAK3 kinase (radiometric, [γ-33P]-ATP); assay type: biochemical; settings: recombinant human JAK3, 40 min at room temperature
T3 construct: purchased Eurofins, UK
T3 sequence (P52333 1-1124): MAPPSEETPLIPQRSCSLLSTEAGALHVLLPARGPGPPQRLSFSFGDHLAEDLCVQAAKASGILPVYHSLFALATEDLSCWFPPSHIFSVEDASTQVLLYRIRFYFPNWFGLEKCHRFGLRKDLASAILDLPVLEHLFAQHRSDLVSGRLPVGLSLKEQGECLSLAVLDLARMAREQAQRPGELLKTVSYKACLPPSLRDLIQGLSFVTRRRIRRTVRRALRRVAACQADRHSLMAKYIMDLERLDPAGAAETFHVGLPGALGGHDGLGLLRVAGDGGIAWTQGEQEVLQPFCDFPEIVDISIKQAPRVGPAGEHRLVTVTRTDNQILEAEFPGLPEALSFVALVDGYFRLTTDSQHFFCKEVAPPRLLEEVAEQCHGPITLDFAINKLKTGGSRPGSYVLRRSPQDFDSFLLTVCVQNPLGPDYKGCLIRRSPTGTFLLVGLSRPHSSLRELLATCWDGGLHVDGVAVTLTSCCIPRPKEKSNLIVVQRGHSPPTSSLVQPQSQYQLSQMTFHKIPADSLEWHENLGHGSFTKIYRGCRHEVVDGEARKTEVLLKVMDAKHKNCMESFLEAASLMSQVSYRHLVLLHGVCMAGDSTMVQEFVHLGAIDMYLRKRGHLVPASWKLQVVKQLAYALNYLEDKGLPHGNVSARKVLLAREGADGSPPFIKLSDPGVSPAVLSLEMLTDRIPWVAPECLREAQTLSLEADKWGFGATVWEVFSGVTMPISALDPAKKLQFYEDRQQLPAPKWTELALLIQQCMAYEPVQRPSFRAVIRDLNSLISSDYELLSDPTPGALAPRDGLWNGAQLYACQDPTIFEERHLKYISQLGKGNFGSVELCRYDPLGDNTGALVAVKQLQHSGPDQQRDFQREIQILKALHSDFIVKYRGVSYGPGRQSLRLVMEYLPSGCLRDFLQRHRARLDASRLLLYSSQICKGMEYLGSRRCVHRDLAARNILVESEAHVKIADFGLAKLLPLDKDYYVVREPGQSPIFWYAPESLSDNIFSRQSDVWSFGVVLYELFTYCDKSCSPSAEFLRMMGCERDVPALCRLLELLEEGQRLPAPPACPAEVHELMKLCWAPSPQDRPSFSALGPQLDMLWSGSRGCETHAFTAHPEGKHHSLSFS
Protocol: as §1, §2
JAK3(h) was incubated with 8 mM MOPS pH 7.0, 0.2 mM EDTA, 500 μM GGEEEEYFELVKKKK (SEQ ID NO: 3), 10 mM magnesium acetate and [γ-^33P]-ATP (the activity and concentration were tailored as required). The reaction was started by adding a Mg/ATP mixture, and terminated by adding 0.5% phosphoric acid after 40 min of incubation at room temperature. 10 μL of the reactant was then dotted on a P30 filter pad, washed three times with 0.425% phosphoric acid and once with methanol within 4 minutes, and dried, and scintillation counting was performed.
as §3

[4] = target: T4, TYK2(h) (Homo sapiens, UniProt P29597); experiment: In vitro activity assay of TYK2 kinase (radiometric, [γ-33P]-ATP); assay type: biochemical; settings: recombinant human Tyk2, 40 min at room temperature
T4 construct: purchased Eurofins, UK
Protocol: as §1, §2
TYK2(h) was incubated with 8 mM MOPS pH 7.0, 0.2 mM EDTA, 250 μM GGMEDIYFEFMGGKKK (SEQ ID NO:4), 10 mM magnesium acetate and [γ-^33P]-ATP (the activity and concentration were tailored as required). The reaction was started by adding a Mg/ATP mixture, and terminated by adding 0.5% phosphoric acid after 40 min of incubation at room temperature. 10 μL of the reactant was then dotted on a P30 filter pad, washed three times with 0.425% phosphoric acid and once with methanol within 4 minutes, and dried, and scintillation counting was performed.
as §3

[5] = Pharmacokinetic (PK) experiment in rats; assay type: in vivo; settings: Sprague-Dawley (SD), rat, plasma, po, male SD rats; for AUC(0-inf) / Cmax / half-life: fasted, tail vein injection 1 mg/kg and gavage 5 mg/kg, route not given; for AUC(0-inf): read-out: AUC0-inf (area under plasma concentration-time curve from time 0 extrapolated to infinite time); for Cmax: read-out: Cmax (peak concentration); for half-life: read-out: T1/2 (half-life) (converted); for bioavailability: gavage 5 mg/kg vs tail vein injection 1 mg/kg
Protocol: A test compound was dissolved [5% DMSO, 95% (12% SBE-β-CD)] to give a clear solution, which was administered into male rats (SD) (overnight fasting, 7-8 weeks old) by tail vein injection and by gavage, respectively. After administration of the test compound, blood was collected from the mandibular vein and centrifuged to obtain plasma at 0.117, 0.333, 1, 2, 4, 7 and 24 h in the tail vein injection group (1 mg/kg), and at 0.25, 0.5, 1, 2, 4, 8 and 24 h in the gavage group (5 mg/kg). The plasma concentration was measured using LC-MS/MS method, and the relevant pharmacokinetic parameters were calculated using WinNonlin™ Version 6.3 pharmacokinetic software with non-compartmental model linear logarithmic trapezoidal method.

[6] = system: adjuvant-induced arthritis (AIA); experiment: In vivo efficacy study of adjuvant-induced arthritis (AIA) in rats; set-up: species or system female Lewis rats; settings: for Inhibition rate of area under clinical score curve, AUC (%): two weeks, rat AIA
Protocol: Experimental procedures: the compounds of the present application were tested for their therapeutic effect on arthritis using a rat adjuvant arthritis model. Female Lewis rats weighing 160-180 g were anesthetized with isoflurane and injected with 0.1 mL of Mycobacterium tuberculosis suspension subcutaneously in the left hind paw. 13 days after the modeling, the rats were divided into groups and given corresponding test compounds. For example, the female Lewis rats were orally administered different doses (see Table 3-2 for specific doses) of a solution of test compound 1A in a mixed solvent [5% DMSO, 95% (12% SBE-β-CD)] twice a day (10 test animals in each dose group). During two consecutive weeks of administration, the states of the rats were observed, and the foot volume swellings were recorded and scored.

[7] = system: collagen-induced arthritis (CIA); experiment: In vivo efficacy study of collagen-induced arthritis (CIA) in rats; set-up: species or system Lewis rats; settings: for Clinical score (on day 14 of administration) Mean ± SEM / Foot volume (mL, on day 14 of administration) Mean ± SEM: rat CIA
Protocol: [table] The compounds of the present application were tested for their therapeutic effect on arthritis using a rat collagen-induced arthritis model. Lewis rats were immunized. The day of the first immunization was recorded as day 0, and the subsequent days were recorded in order. The Lewis rats were anesthetized with isoflurane and injected with 50 μL of prepared collagen emulsion (containing 200 μg of CII) subcutaneously in the tail (2-3 cm away from the base of the tail). On day 21, the same volume of the collagen emulsion was injected in the tail in the same manner. Rats in the normal group were not immunized. On day 27 of the modeling, the rats were divided into groups and administered corresponding test compounds. For example, the female Lewis rats were orally administered different doses (see Table 4-1 for specific doses) of a solution of test compound 4 in a mixed solvent [0.5% HPMC E5/0.5% PVP K30/0.2% SLS in water] twice a day (8 test animals in each dose group). During 14 consecutive days of administration, the states of the rats were observed, and the foot volume swellings were recorded and scored.

T4 sequence (P29597 whole entry): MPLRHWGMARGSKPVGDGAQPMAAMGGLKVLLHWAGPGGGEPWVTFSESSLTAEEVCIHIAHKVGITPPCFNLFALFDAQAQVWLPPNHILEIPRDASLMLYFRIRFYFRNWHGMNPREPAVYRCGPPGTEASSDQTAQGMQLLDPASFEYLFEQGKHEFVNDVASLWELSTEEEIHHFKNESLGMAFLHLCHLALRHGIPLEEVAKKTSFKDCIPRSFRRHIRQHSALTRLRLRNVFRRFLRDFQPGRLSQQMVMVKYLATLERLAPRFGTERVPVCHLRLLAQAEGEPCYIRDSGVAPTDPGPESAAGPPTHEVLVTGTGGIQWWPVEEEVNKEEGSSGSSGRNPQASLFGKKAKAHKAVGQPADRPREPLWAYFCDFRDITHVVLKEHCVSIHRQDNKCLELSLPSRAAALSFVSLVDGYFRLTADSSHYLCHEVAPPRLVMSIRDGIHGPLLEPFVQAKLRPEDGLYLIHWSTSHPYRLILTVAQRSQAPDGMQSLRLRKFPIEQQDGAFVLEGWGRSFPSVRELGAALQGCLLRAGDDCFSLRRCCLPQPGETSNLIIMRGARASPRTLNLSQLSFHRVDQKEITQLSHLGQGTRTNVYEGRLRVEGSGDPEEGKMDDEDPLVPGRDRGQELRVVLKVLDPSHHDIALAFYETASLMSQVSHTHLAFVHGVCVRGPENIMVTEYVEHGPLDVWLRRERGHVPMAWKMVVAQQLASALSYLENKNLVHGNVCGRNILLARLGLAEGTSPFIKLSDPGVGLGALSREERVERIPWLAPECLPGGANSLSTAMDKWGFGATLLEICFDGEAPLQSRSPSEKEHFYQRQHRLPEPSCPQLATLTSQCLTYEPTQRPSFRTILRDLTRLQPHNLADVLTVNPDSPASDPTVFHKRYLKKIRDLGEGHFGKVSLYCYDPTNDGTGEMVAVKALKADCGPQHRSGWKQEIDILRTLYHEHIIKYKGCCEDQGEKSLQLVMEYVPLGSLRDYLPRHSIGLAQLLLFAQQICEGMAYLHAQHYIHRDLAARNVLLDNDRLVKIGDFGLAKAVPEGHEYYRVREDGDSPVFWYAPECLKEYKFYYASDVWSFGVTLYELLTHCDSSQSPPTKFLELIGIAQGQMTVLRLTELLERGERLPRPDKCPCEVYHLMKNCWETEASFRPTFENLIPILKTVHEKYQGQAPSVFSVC
T2 sequence (O60674 whole entry): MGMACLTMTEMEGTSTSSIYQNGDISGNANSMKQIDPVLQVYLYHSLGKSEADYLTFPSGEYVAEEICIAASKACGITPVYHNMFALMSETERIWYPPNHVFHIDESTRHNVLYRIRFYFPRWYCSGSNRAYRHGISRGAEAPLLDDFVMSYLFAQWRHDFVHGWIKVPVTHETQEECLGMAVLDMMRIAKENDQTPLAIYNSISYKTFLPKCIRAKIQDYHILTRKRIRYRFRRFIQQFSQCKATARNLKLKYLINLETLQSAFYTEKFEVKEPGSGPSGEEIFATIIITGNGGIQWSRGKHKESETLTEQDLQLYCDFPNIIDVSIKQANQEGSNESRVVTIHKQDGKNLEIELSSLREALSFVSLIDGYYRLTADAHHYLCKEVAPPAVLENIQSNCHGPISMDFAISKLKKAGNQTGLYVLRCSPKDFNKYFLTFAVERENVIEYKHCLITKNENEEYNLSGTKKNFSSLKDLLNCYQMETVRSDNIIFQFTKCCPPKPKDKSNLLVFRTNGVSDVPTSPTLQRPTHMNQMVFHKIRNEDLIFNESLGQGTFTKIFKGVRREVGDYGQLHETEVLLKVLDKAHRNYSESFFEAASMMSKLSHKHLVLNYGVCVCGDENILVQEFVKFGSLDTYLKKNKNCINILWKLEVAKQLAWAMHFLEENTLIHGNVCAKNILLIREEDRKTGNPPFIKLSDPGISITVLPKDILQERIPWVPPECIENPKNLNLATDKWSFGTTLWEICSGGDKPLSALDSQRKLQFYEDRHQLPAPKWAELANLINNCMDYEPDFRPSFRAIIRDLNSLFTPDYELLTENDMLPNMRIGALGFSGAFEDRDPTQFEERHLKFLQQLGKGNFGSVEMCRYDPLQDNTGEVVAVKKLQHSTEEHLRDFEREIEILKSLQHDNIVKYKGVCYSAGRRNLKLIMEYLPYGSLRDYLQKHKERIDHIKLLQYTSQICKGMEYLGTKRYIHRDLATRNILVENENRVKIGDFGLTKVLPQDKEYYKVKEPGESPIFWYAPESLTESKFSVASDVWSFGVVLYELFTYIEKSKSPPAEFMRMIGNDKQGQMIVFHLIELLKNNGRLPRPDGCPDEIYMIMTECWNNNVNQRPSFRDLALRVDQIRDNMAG
T1 sequence (P23458 whole entry): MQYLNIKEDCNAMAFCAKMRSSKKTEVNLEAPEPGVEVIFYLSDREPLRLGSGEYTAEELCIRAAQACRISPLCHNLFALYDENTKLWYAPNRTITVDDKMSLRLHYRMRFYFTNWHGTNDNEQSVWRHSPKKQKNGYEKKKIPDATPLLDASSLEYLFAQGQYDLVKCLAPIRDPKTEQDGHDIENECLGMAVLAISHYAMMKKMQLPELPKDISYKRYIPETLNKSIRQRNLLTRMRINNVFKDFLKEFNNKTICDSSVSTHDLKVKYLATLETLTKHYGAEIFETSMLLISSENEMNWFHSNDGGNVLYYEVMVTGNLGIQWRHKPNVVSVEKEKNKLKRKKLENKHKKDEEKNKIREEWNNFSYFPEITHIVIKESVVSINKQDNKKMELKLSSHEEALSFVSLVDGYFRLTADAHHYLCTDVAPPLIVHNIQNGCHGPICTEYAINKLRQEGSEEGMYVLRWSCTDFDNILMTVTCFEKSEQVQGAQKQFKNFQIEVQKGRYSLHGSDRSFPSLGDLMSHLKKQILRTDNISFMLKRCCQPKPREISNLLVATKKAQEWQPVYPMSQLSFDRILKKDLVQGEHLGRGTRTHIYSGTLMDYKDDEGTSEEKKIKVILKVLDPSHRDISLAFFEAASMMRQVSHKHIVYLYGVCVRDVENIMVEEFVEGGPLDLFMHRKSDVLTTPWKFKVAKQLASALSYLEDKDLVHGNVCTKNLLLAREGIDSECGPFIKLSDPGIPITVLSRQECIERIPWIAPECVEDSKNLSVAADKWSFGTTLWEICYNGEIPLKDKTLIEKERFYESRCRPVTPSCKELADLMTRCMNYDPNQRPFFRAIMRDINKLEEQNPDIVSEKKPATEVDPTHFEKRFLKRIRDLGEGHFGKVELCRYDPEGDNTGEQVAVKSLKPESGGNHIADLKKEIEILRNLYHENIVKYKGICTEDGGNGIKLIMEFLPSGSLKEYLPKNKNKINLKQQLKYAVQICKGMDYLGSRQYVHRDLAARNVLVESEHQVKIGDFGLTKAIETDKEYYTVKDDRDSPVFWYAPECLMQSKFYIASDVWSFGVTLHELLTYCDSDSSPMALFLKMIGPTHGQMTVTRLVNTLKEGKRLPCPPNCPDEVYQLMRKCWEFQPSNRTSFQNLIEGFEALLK

| IC50 [1] [nM] | IC50 [2] [nM] | IC50 [3] [nM] | IC50 [4] [nM] | SMILES | further results |
| --- | --- | --- | --- | --- | --- |
| 1.3 | 27 | 30.8 | 35.8 | N#Cc1cc2n(n1)CC(n1cnc3cnc4[nH]ccc4c31)CC2 (single isomer, unassigned) [Compound 1A] | AUC(0-inf) [5]: 8.51 µM·h; Cmax [5]: 2.94 µM; half-life [5]: 1.35 h; bioavailability [5]: 41.8%; Inhibition rate of area under clinical score curve, AUC (%) ([6]; 3 mg/kg oral twice a day): 49.8%; Mean arthritis clinical score, peak ([6]; 10 mg/kg group, day 13 (day of grouping, start of dosing)): 5.8; Mean arthritis clinical score at the experimental endpoint ([6]; 10 mg/kg group, day 27): 1.3; Inhibition rate of area under clinical score curve, AUC (%) ([6]; 10 mg/kg oral twice a day): 60.3%; Effect on the downward trend of the weight in animals caused by the disease attack ([6]; 3 and 10 mg/kg groups, significant difference from solvent control from day 20): significant relieving effect on the downward trend of the weight; Effect on increase in arthritis clinical score and foot volume ([6]; 3 and 10 mg/kg oral twice a day, dose-dependent): inhibited the increase in arthritis clinical score and foot volume |
| < 1 | 2 | 25 | 2 | Cc1nc2cnc3[nH]ccc3c2n1C1CCc2cc(C#N)nn2C1 (single isomer, unassigned) [Compound 2A] | – |
| 3 | 62 | 217 | 57 | N#Cc1cc2n(n1)CC(n1c(C(F)(F)F)nc3cnc4[nH]ccc4c31)CC2 (single isomer, unassigned) [Compound 3A] | – |

The next lines start with the molecule.

| SMILES | IC50 [1] [nM] | IC50 [2] [nM] | IC50 [3] [nM] | IC50 [4] [nM] | further results |
| --- | --- | --- | --- | --- | --- |
| COc1nc2cnc3[nH]ccc3c2n1[C@@H]1CCc2cc(C#N)nn2C1 [Compound 4] | 0.9 | 7 | 27.3 | 50.3 | AUC(0-inf) [5]: 67.8 µM·h; Cmax [5]: 10.2 µM; half-life [5]: 3.65 h; bioavailability [5]: 119%; Clinical score (on day 14 of administration) Mean ± SEM ([7]; 1 mg/kg oral BID): 0.38 ± 0.16; Foot volume (mL, on day 14 of administration) Mean ± SEM ([7]; 1 mg/kg oral BID): 1.32 ± 0.04 mL; Body weight recovery ([7]; 3 mg/kg BID, end of administration at day 14): recovers to the level in the normal group; Foot volume (mL, on day 14 of administration) Mean ± SEM ([7]; 3 mg/kg oral BID): 1.28 mL; Degree of the foot volume swelling ([7]; BID at 1 and 3 mg/kg): reduced in a dose-dependent manner; Effect on clinical scores of the arthritic rats ([7]; BID at 1 and 3 mg/kg, significant difference from solvent control): reduces the clinical scores of the arthritic rats in a dose-dependent manner |
| C[C@@H](O)c1nc2cnc3[nH]ccc3c2n1[C@@H]1CCc2cc(C#N)nn2C1 [Compound 5] | 9 | 250 | 576 | 231 | – |
| COc1nc2cnc3[nH]ccc3c2n1[C@H]1CCc2cc(C#N)nn2C1 [Compound 6] | 2.3 | 70.2 | 73.8 | 130 | – |
| C[C@@H](O)c1nc2cnc3[nH]ccc3c2n1[C@H]1CCc2cc(C#N)nn2C1 [Compound 7] | 0.3 | 53.9 | 38.4 | 12.4 | – |
| C[C@@H]1C[C@H]2[C@@H]3CCC4=CC(=O)C=C[C@]4(C)[C@@]3(F)[C@@H](O)C[C@]2(C)[C@@]1(O)C(=O)CO [Dexamethasone, reference compound] | – | – | – | – | Clinical score (on day 14 of administration) Mean ± SEM ([7]; 0.1 mg/kg): 0.00 ± 0.00; Foot volume (mL, on day 14 of administration) Mean ± SEM ([7]; 0.1 mg/kg): 1.22 ± 0.042 mL |
